The results in this text go back to patent US20250215010A1, “DIAZABICYCLOOCTANE DERIVATIVES USEFUL AS MATRIX METALLOPROTEINASE INHIBITORS” (VASA THERAPEUTICS SPOLKA Z OGRANICZONA ODPOWIEDZIALNOSCIA, priority 2022, published 2025).

The term IC50 denotes the concentration that inhibits the measured activity by half.

What all share (type): biochemical
Assay [1] addresses T1, MMP1 (Homo sapiens, UniProt P03956).
T1 sequence (P03956 100-269 limits assumed): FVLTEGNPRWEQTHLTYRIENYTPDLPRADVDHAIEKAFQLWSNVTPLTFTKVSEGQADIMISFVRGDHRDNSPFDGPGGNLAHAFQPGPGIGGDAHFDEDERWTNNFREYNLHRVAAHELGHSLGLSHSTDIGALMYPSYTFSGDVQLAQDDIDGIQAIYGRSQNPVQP
Description: MMP-1 colorimetric inhibition assay (Enzo kit BML-AK404). The note with it: thiopeptide substrate, absorbance 415 nm; read-out: MMP 1 IC50 class. In a few lines: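 Colorimetric kit run per manufacturer protocol. MMP-1 cleaves a thiopeptide substrate (Ac-PLG-[2-mercapto-4-methylpentanoyl]-LG-OC2H5); released thiol reacts with DTNB, monitored at 415 nm. IC50 (nM) from inhibition curves of normalized values.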

The target in assay [2] is T2, MMP2 (Homo sapiens, UniProt P08253).
T2 sequence (P08253 110-660): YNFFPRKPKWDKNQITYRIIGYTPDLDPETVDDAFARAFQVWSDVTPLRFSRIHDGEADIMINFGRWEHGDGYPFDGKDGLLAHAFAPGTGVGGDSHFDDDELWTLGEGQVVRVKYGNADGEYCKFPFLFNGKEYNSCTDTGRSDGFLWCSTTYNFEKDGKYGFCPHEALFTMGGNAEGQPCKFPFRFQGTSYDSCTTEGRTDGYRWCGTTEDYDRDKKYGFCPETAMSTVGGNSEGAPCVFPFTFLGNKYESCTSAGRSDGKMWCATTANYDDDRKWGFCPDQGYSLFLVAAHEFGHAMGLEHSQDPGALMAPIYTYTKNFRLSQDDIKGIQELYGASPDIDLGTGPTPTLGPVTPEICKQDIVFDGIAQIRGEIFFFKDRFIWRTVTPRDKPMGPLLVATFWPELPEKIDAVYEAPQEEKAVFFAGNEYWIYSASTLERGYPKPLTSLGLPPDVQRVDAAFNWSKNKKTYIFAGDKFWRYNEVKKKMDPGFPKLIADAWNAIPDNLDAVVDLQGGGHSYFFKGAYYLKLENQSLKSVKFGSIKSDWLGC
In words: MMP-2 colorimetric inhibition assay (Enzo kit BML-AK408). The note with it: thiopeptide substrate, absorbance 415 nm; read-out: MMP 2 IC50 class. The essentials:
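Cleavage of the thiopeptide Ac-PLG-[2-mercapto-4-methylpentanoyl]-LG-OC2H5 releases a sulfhydryl that reacts with DTNB, read at 415 nm per the kit protocol. IC50 values (nM) come from inhibition curves of normalized data.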

In assay [3] the target is T3, MMP13 (Homo sapiens, UniProt P45452).
T3 construct: purchased Enzo Life Sciences, Inc. BML-AK412
Description: MMP-13 colorimetric inhibition assay (Enzo kit BML-AK412). The note with it: thiopeptide substrate, absorbance 415 nm; read-out: MMP 13 IC50 class. In a few lines:
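Thiopeptide chromogenic substrate (Ac-PLG-[2-mercapto-4-methylpentanoyl]-LG-OC2H5); MMP-13 hydrolysis of the thioester yields a thiol that reacts with DTNB, read at 415 nm. IC50 values (nM) derived from inhibition curves of normalized data.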

The target in assay [4] is MMP9 (Homo sapiens, UniProt P14780). In words: MMP-9 colorimetric inhibition assay (Enzo kit BML-AK410). The note with it: thiopeptide substrate, absorbance 415 nm; read-out: MMP 9 IC50 class. The essentials:
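Colorimetric thioester-substrate assay: hydrolysis of Ac-PLG-[2-mercapto-4-methylpentanoyl]-LG-OC2H5 frees a thiol that reacts with DTNB, read at 415 nm. Run per kit protocol. IC50 (nM) taken from inhibition curves of normalized values.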

Assay [5] concerns the target T4, ADAM10 (Homo sapiens, UniProt O14672).
T4 construct: purchased AnaSpec, Inc. AS-72226
T4 sequence (O14672 214-748): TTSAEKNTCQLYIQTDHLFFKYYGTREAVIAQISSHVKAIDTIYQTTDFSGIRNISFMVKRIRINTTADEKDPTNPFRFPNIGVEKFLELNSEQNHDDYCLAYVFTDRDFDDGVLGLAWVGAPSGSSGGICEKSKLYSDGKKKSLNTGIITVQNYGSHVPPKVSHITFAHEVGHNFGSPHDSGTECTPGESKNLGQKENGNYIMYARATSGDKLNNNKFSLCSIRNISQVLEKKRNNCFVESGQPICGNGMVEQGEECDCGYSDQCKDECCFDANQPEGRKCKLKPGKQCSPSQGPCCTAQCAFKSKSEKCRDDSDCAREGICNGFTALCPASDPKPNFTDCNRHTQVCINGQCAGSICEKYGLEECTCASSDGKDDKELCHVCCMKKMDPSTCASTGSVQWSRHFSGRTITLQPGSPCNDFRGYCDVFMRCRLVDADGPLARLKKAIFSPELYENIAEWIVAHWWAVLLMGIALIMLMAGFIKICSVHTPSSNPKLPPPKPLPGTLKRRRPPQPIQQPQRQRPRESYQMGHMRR
In words: SensoLyte 520 ADAM10 fluorometric activity assay (AnaSpec AS-72226). The note with it: FRET peptide substrate, ex/em 495/520 nm; read-out: ADAM 10 IC50 class. The procedure:
The inhibitory activities of the compounds of the invention were assessed in 96-well microplate format using MMP1, MMP2, MMP9 and MMP13 colorimetric assay kits and TACE fluorometric assay kit from Enzo Life Sciences, Inc. The inhibitory effect of the compounds of the invention on ADAM10 activity were evaluated in 96-well microplate format using fluorometric assay from AnaSpec, Inc.
SensoLyte® 520 ADAM10 Activity Assay Kit (catalog #AS-72226) is a complete assay system designed to screen ADAM10 inhibitors using FRET-based peptide substrate containing the 5-FAM/QXL™ 520 fluorophore/quencher pair. The fluorescence of 5-FAM is quenched by QXL™ 520 and recovered upon cleavage of the peptide by active ADAM10.
The inhibitory activity of the compounds of the invention against ADAM10 was tested according to the manufacturer's assay protocol and the fluorescence was monitored at excitation/emission wavelengths=495 nm/520 nm using Tecan Infinite® 200 Pro F Nano^+ microplate reader.
The normalized values were analyzed using GraphPadPrism 9 for Windows (GraphPad Software, San Diego, CA, USA) software by plotting inhibition curves and determining the IC50 values (in nM).

For assay [6], the target named is ADAM17 (TACE) (Homo sapiens, UniProt P78536). Description: TACE fluorometric inhibition assay (Enzo kit BML-AK310). The note with it: quenched fluorogenic peptide, ex/em 320/420 nm; read-out: TACE IC50 class. In a few lines: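 Kit-based TACE assay run per manufacturer's protocol, using quenched fluorogenic peptide Mca-PLAQAV-Dpa-RSSSR-NH2 whose cleavage raises Mca fluorescence. Signal read at ex/em 320/420 nm; IC50 (nM) derived from inhibition curves of normalized values.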
Chain of ADAM17 (TACE) (P78536 215-477 limits assumed): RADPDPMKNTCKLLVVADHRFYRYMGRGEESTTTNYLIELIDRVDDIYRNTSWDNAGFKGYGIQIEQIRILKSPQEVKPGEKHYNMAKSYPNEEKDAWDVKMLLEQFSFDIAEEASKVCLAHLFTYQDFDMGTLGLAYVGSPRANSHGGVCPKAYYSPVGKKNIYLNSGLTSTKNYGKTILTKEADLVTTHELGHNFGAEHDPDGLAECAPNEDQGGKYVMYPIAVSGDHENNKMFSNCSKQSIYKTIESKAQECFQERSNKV

A value given as a limit tells only on which side of the number the result lay.

Chain of MMP9 (P14780 94-707): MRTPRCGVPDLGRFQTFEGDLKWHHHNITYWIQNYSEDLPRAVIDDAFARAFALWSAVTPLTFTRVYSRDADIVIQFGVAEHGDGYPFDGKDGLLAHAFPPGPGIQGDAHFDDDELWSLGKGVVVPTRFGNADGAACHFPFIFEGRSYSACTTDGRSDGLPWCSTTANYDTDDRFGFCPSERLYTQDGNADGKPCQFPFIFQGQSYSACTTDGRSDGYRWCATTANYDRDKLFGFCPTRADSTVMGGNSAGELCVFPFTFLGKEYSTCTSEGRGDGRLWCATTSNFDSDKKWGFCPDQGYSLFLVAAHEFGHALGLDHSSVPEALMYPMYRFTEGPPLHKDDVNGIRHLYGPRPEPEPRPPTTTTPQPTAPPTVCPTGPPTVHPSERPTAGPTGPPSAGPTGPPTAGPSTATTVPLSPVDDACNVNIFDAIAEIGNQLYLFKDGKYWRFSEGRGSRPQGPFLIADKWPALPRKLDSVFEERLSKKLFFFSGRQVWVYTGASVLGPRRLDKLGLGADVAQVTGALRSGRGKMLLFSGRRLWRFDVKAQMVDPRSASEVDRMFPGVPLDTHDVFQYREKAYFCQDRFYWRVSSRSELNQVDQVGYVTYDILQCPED

`COCCOC(=O)N1[C@@H]2CC[C@H]1[C@H](C(=O)NO)N(S(=O)(=O)c1ccc(Oc3ccc(OC(F)(F)F)cc3)nc1)C2` [Example 19, 2-methoxyethyl (1S,2R,5R)-2-(hydroxycarbamoyl)-3-((6-(4-(trifluoro-methoxy)phenoxy)-pyridin-3-yl)-sulfonyl)-3,8-diaza-bicyclo[3.2.1]octane-8-carboxylate]: the concentration for half-maximal inhibition (IC50) in assay [1] is 1000 to 10000 nM; in assay [2], < 50 nM; in assay [3] it was < 50 nM; in assay [4], < 50 nM; in assay [5] it was > 10000 nM; in assay [6], 1000 to 10000 nM.
As to `CC(C)C(=O)N1[C@@H]2CC[C@H]1[C@H](C(=O)NO)N(S(=O)(=O)c1ccc(Oc3ccc(OC(F)(F)F)cc3)nc1)C2` [Example 56, (1S,2R,5R)-N-hydroxy-8-isobutyry1-3-((6-(4-(trifluoro-methoxy)phenoxy)-pyridin-3-yl)-sulfonyl)-3,8-diazabicyclo-[3.2.1]octane-2-carboxamide], the IC50 in assay [1] is > 10000 nM; in assay [2] it was < 50 nM; in assay [3], < 50 nM; in assay [4] it was < 50 nM; in assay [5], > 10000 nM; in assay [6] it was 1000 to 10000 nM.
Turning to `CCC(=O)N1[C@@H]2CC[C@H]1[C@H](C(=O)NO)N(S(=O)(=O)c1ccc(Oc3ccc(OC(C)C)cc3)nc1)C2` [Example 59, (1S,2R,5R)-N-hydroxy-3-((6-(4-isopropoxyphenoxy)pyridin-3-yl)-sulfonyl)-8-propionyl-3,8-diaza-bicyclo[3.2.1]octane-2-carboxamide], the concentration for half-maximal inhibition (IC50) in assay [1] was 1000 to 10000 nM; in assay [2], < 50 nM; in assay [3], < 50 nM; in assay [4] it was < 50 nM; in assay [5], > 10000 nM; in assay [6] it was > 10000 nM.
With `COCCOC(=O)N1[C@@H]2CC[C@H]1[C@H](C(=O)NO)N(S(=O)(=O)c1ccc(Oc3ccc(F)cn3)cc1)C2` [Example 7, 2-methoxyethyl (1S,2R,5R)-3-((4-((5-fluoropyridin-2-yl)oxy)phenyl)-sulfonyl)-2-(hydroxycarbamoyl)-3,8-diazabicyclo-[3.2.1]octane-8-carboxylate], the concentration for half-maximal inhibition (IC50) in assay [1] was 50 to 1000 nM; in assay [2], < 50 nM; in assay [3], < 50 nM; in assay [4] it was < 50 nM; in assay [5], 50 to 1000 nM; in assay [6] it was 50 to 1000 nM.
On to `COCCOC(=O)N1[C@@H]2CC[C@H]1[C@H](C(=O)NO)N(S(=O)(=O)c1ccc(Oc3cnn(C)c3)nc1)C2` [Example 36, 2-methoxyethyl (1S,2R,5R)-2-(hydroxycarbamoyl)-3-((6-((1-methyl-1H-pyrazol-4-yl)oxy)-pyridin-3-yl)-sulfonyl)-3,8-diazabicyclo[3.2.1]-octane-8-carboxylate], for which the IC50 in assay [1] is < 50 nM; in assay [2], < 50 nM; in assay [3] it was < 50 nM; in assay [4] it was < 50 nM; in assay [5], 1000 to 10000 nM; in assay [6] it was 50 to 1000 nM.
Take `CC(=O)N1[C@@H]2CC[C@H]1[C@H](C(=O)NO)N(S(=O)(=O)c1ccc(Oc3ccc(OC(F)(F)F)cc3)nc1)C2` [Example 54, (1S,2R,5R)-8-acetyl-N-hydroxy-3-((6-(4-(trifluoromethoxy)-phenoxy)pyridin-3-yl)sulfonyl)-3,8-diazabicyclo[3.2.1]-octane-2-carboxamide]: the IC50 in assay [1] was 1000 to 10000 nM; in assay [2], < 50 nM; in assay [3], < 50 nM; in assay [4], < 50 nM; in assay [5], > 10000 nM; in assay [6] it was 1000 to 10000 nM.
`COCCOC(=O)N1[C@@H]2CC[C@H]1[C@H](C(=O)NO)N(S(=O)(=O)c1ccc(Oc3ccc(OCC(F)(F)F)cc3)nc1)C2` [Example 25, 2-methoxyethyl (1S,2R,5R)-2-(hydroxycarbamoyl)-3-((6-(4-(2,2,2-trifluoroethoxy)-phenoxy)pyridin-3-yl)sulfonyl)-3,8-diazabicyclo[3.2.1]-octane-8-carboxylate]: the 50% inhibitory concentration (IC50) was 1000 to 10000 nM in assay [1]; < 50 nM in assay [2]; < 50 nM in assay [3]; < 50 nM in assay [4]; > 10000 nM in assay [5]; > 10000 nM in assay [6].
